This note sets out measurements from ChEMBL document CHEMBL1201862, “PubChem BioAssay data set” (2004).

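Results reflect a 48-hour exposure of cells in 96-well plates to compound at five concentrations. At the GI50, growth is halved.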 Activity calls are given as the source filed them. No stated cut-off is given here; in the data, active = GI50 up to about 1.1 µM and inactive = higher.

Some test systems named below: K562; OVCAR-4; OVCAR-5; PC-3; COLO 205; UACC-62; NCI-H23; SF-295; MOLT-4; MDA-N; HCC 2998; DU-145; UACC-257; MDA-MB-231; HCT-15; NCI/ADR-RES; SNB-75; HOP-92; Hs-578T; HT-29.
What all share (experiment): NCI tumour cell line growth inhibition, 48 h

Consider `COC(=O)c1cc(C#N)[nH]c1-c1cccs1`, for which the GI50 with K562 is > 100 µM (inactive); with OVCAR-4 it was > 100 µM (inactive); with OVCAR-5, > 100 µM (inactive); in the experiment with PC-3, 47.1 µM (inactive); in the experiment with COLO 205, > 100 µM (inactive); in the experiment on UACC-62, 97.7 µM (inactive). The GI50 in the experiment on NCI-H23 was 58.1 µM (inactive); in the experiment with SF-295 it was 86.5 µM (inactive); in the experiment on MOLT-4, > 100 µM (inactive); in the experiment with MDA-N it was > 100 µM (inactive); with HCC 2998 it was > 100 µM (inactive); with DU-145, 86.9 µM (inactive). For the same molecule, the GI50 in the experiment with UACC-257 was > 100 µM (inactive); in the experiment with MDA-MB-231 it was 52.7 µM (inactive); with HCT-15, 57.4 µM; in the experiment with NCI/ADR-RES it was 33.7 µM (inactive); in the experiment with SNB-75, 25.8 µM (inactive); with HOP-92, 30.8 µM (inactive).
For `COc1ccc(-c2cc(-c3ccccc3)nc3c2CC(=O)Nc2ccccc2-3)cc1OC`, the GI50 in the experiment with K562 is 1.45 µM (inactive); in the experiment with OVCAR-4, 1.2 µM (inactive); in the experiment on OVCAR-5, > 100 µM (inactive); in the experiment on PC-3, > 100 µM (inactive); in the experiment on COLO 205, > 27.9 µM (inactive); in the experiment on UACC-62 it was > 100 µM (inactive). Also, the GI50 in the experiment on NCI-H23, with SF-295, with MOLT-4, with HCC 2998, in the experiment with DU-145 and in the experiment on UACC-257 was > 100 µM (inactive) throughout. Moreover, the GI50 in the experiment on MDA-MB-231 was 1.32 µM (inactive); with HCT-15 it was greater than 100 µM; in the experiment on NCI/ADR-RES, 1.37 µM (inactive); in the experiment on Hs-578T, 0.855 µM (active); in the experiment on HT-29, 0.719 µM (active); in the experiment with SNB-75, 0.424 µM (active). The GI50 in the experiment on HOP-92 is 5.46 µM (inactive).
For the molecule `OC(CCNCc1ccccc1)c1ccc2ccccc2c1` (stereo unspecified), the GI50 in the experiment with K562 was 21.6 µM (inactive); in the experiment on OVCAR-4 it was 28.4 µM (inactive); with OVCAR-5, 30.7 µM (inactive); with PC-3, 20.3 µM (inactive); in the experiment on COLO 205, 20.7 µM (inactive); with UACC-62, 19.3 µM (inactive). For the same molecule, the GI50 in the experiment with NCI-H23 is 30 µM (inactive); in the experiment with SF-295, 33 µM (inactive); with MOLT-4, 31.1 µM (inactive); with HCC 2998, 36.2 µM (inactive); in the experiment on DU-145 it was 18.3 µM (inactive); in the experiment with UACC-257 it was 18 µM (inactive). The GI50 in the experiment with MDA-MB-231 was 17.4 µM (inactive); with HCT-15, 20.5 µM; with NCI/ADR-RES it was 24.7 µM (inactive); in the experiment on Hs-578T, 20.6 µM (inactive); in the experiment on HT-29, 22.9 µM (inactive); in the experiment with SNB-75 it was 28.2 µM (inactive).
Consider `Cc1ccc(-c2cc[n+]3c(n2)oc2ccccc23)cc1`, for which the GI50 in the experiment on K562 is 4.84 µM (inactive); in the experiment on OVCAR-4 it was 16 µM (inactive); in the experiment on OVCAR-5, 39.7 µM (inactive); in the experiment with COLO 205, 12.4 µM (inactive); with UACC-62, 24.2 µM (inactive); with NCI-H23 it was 39.9 µM (inactive). Further, the GI50 in the experiment on SF-295 was 26.7 µM (inactive); in the experiment with MOLT-4, 10.8 µM (inactive); with MDA-N it was 31.6 µM (inactive); in the experiment on HCC 2998, 30.5 µM (inactive); with DU-145, 51.8 µM (inactive); in the experiment with UACC-257 it was 18.8 µM (inactive). The GI50 was 75.2 µM (inactive) in the experiment on MDA-MB-231; greater than 100 µM in the experiment on HCT-15; > 100 µM (inactive) in the experiment on NCI/ADR-RES; 27.8 µM (inactive) in the experiment with Hs-578T; 25 µM (inactive) in the experiment with SNB-75; 14.2 µM (inactive) in the experiment on HOP-92.
For `O=C(NCP(=O)(O)O)c1cccnc1` [(NICOTINAMIDOMETHYL)PHOSPHONIC ACID], the GI50 with K562, with OVCAR-4, in the experiment on OVCAR-5, with PC-3, in the experiment with COLO 205 and with UACC-62 was > 100 µM (inactive) in each case. Also, the GI50 in the experiment with NCI-H23, in the experiment on SF-295, in the experiment on MOLT-4, with MDA-N, in the experiment on DU-145 and with UACC-257 was > 100 µM (inactive) throughout. The GI50 with MDA-MB-231 was > 100 µM (inactive); with HCT-15, greater than 100 µM; in the experiment on NCI/ADR-RES, > 100 µM (inactive); with HT-29, > 100 µM (inactive); in the experiment with SNB-75, 92.3 µM (inactive); in the experiment with HOP-92 it was > 100 µM (inactive).
In the case of `Cn1c(N(CCO)CCO)cnc1[N+](=O)[O-]`, the GI50 with K562, with OVCAR-4, in the experiment with OVCAR-5, in the experiment on PC-3, with COLO 205 and in the experiment on UACC-62 was > 100 µM (inactive) throughout. In addition, the GI50 with NCI-H23, in the experiment with SF-295, in the experiment on MOLT-4, in the experiment on MDA-N, with UACC-257 and in the experiment with MDA-MB-231 was > 100 µM (inactive) throughout. For the same molecule, the GI50 with HCT-15 is greater than 100 µM; with NCI/ADR-RES, > 100 µM (inactive); with Hs-578T, > 100 µM (inactive); with HT-29, > 100 µM (inactive); in the experiment with SNB-75, > 100 µM (inactive); in the experiment on HOP-92 it was > 100 µM (inactive).
For `COc1ccc(OC)c([N+](=O)[O-])c1-c1nc2sc(C)c(C)n2c1/C=N/N=C(N)N`, the GI50 is 33.3 µM (inactive) in the experiment with K562; 95.7 µM (inactive) in the experiment with OVCAR-4; > 100 µM (inactive) in the experiment on OVCAR-5; 40.8 µM (inactive) in the experiment with PC-3; 29.9 µM (inactive) in the experiment with COLO 205; 45.7 µM (inactive) in the experiment with UACC-62. The GI50 is > 100 µM (inactive) with NCI-H23; 84.1 µM (inactive) in the experiment on SF-295; 13.9 µM (inactive) in the experiment on MOLT-4; 46.3 µM (inactive) in the experiment on HCC 2998; > 100 µM (inactive) with DU-145; > 100 µM (inactive) with UACC-257. Moreover, the GI50 in the experiment on MDA-MB-231 is 76.7 µM (inactive); with HCT-15, greater than 100 µM; in the experiment with NCI/ADR-RES, > 100 µM (inactive); in the experiment with Hs-578T it was 48.3 µM (inactive); with HT-29, 43.4 µM (inactive); in the experiment on HOP-92, 61 µM (inactive).
Take `Cc1ccc(-c2n[nH]c(=O)n2/N=C\c2ccc([N+](=O)[O-])cc2)cc1`: the GI50 was 32 µM (inactive) in the experiment on K562; > 100 µM (inactive) in the experiment with OVCAR-4; > 100 µM (inactive) with OVCAR-5; > 100 µM (inactive) in the experiment with PC-3; > 100 µM (inactive) with COLO 205; 60.1 µM (inactive) in the experiment on UACC-62. Also, the GI50 is > 100 µM (inactive) in the experiment with NCI-H23; > 100 µM (inactive) in the experiment on SF-295; > 42.2 µM (inactive) with MOLT-4; > 100 µM (inactive) in the experiment on HCC 2998; > 100 µM (inactive) in the experiment with DU-145; > 100 µM (inactive) with UACC-257. Besides, the GI50 in the experiment with MDA-MB-231 is 9.75 µM (inactive); with HCT-15, 86.7 µM; in the experiment with NCI/ADR-RES, > 100 µM (inactive); in the experiment with Hs-578T it was 41.1 µM (inactive); with HT-29, > 65.6 µM (inactive); in the experiment on SNB-75, 97.5 µM (inactive). In addition, the GI50 with HOP-92 was > 74.3 µM (inactive).
For `CCOC(=O)/C(=C\n1c(=O)sc2ccccc21)C(=O)c1ccccc1`, the GI50 in the experiment with K562 is 44.3 µM (inactive); in the experiment with OVCAR-4, > 100 µM (inactive); in the experiment with OVCAR-5 it was > 100 µM (inactive); in the experiment with PC-3, > 100 µM (inactive); with COLO 205, > 100 µM (inactive); with UACC-62 it was > 100 µM (inactive). Moreover, the GI50 was > 100 µM (inactive) with NCI-H23; 88.1 µM (inactive) with SF-295; > 100 µM (inactive) in the experiment with MOLT-4; > 100 µM (inactive) in the experiment on HCC 2998; > 100 µM (inactive) with DU-145; > 100 µM (inactive) in the experiment with UACC-257. Also, the GI50 with MDA-MB-231 is 63 µM (inactive); in the experiment with HCT-15 it was greater than 100 µM; in the experiment with NCI/ADR-RES it was > 100 µM (inactive); in the experiment on Hs-578T, 39.6 µM (inactive); in the experiment with HT-29 it was > 100 µM (inactive); in the experiment with SNB-75, 53.8 µM (inactive).
For `O=C1CC(c2ccc(Cl)cc2)C2(C(=O)NC(=O)NC2=O)C(c2ccc(Cl)cc2)C1` (stereo unspecified), the GI50 was 7.5 µM (inactive) in the experiment with K562; 38.5 µM (inactive) in the experiment on OVCAR-4; 31.3 µM (inactive) with OVCAR-5; 30.5 µM (inactive) with PC-3; 20.2 µM (inactive) with COLO 205; 40.5 µM (inactive) in the experiment with UACC-62. For the same molecule, the GI50 in the experiment on NCI-H23 is 34 µM (inactive); with SF-295, 28.8 µM (inactive); in the experiment with MOLT-4, 0.0075 µM (active); in the experiment with MDA-N it was 19.8 µM (inactive); in the experiment with HCC 2998 it was 27.9 µM (inactive); with DU-145, 21.7 µM (inactive). Also, the GI50 was 30.8 µM (inactive) with UACC-257; 13.4 µM (inactive) in the experiment with MDA-MB-231; 22.9 µM in the experiment with HCT-15; 26.4 µM (inactive) in the experiment on NCI/ADR-RES; 23 µM (inactive) with HT-29; 49.5 µM (inactive) in the experiment with SNB-75. Besides, the GI50 in the experiment with HOP-92 is 14.7 µM (inactive).
Take `[O-][S+](CC1(O)CCCCC1)c1ccccc1` (stereo unspecified): the GI50 in the experiment with K562, with OVCAR-4, in the experiment with OVCAR-5, with PC-3, with COLO 205 and in the experiment with UACC-62 was > 100 µM (inactive) throughout. Further, the GI50 in the experiment with NCI-H23, in the experiment with SF-295, in the experiment with MOLT-4, in the experiment with HCC 2998, with DU-145 and in the experiment with UACC-257 was > 100 µM (inactive) in each case. Besides, the GI50 was > 100 µM (inactive) with MDA-MB-231; greater than 100 µM in the experiment on HCT-15; > 100 µM (inactive) in the experiment on NCI/ADR-RES; > 100 µM (inactive) in the experiment with Hs-578T; > 100 µM (inactive) in the experiment with HT-29; > 100 µM (inactive) in the experiment with SNB-75.
